Publication PMC4000408, “No clinically significant drug interactions between lenalidomide and P-glycoprotein substrates and inhibitors: results from controlled phase I studies in healthy volunteers” (Cancer Chemotherapy and Pharmacology, 2014)
Where two headings read alike, the source gives them in different places. Each block holds one compound with its values, some of them ahead of it.

Tests used:
clinical = settings: for T max: median (range)
Protocol: Study 1 was designed as a double-blind, placebo-controlled, randomized, 2-period, crossover trial. Subjects were randomized to receive either lenalidomide 10 mg/day for 7 days in Study Period 1 and the matching placebo for 7 days in Study Period 2, or to receive the same two treatments in the reverse order. […] A 10-day washout separated the study periods.
For analysis of lenalidomide in plasma and urine, the assay ranges were 5–1,000 and 100–20,000 ng/mL, respectively, and the details of methods were described previously. […] C [2, 3] H7]-temsirolimus were quantitatively extracted from whole blood sample by protein precipitation extraction.
Non-compartmental pharmacokinetic parameters were estimated from drug concentration–time profiles. Major pharmacokinetic parameters included C max, time to reach C max (T max), terminal-phase half-life (t 1/2), AUC from time zero to the last measurable concentration (AUCt), AUC from time zero to infinity (AUC∞), cumulative urinary excretion as a percentage of administered dose (fe), and renal clearance (CLR).
An analysis of variance (ANOVA) was performed on the natural log-transformed pharmacokinetic parameters to estimate the percentage ratio of geometric means between treatments, and the 90 % confidence interval (CI) for key pharmacokinetic parameters.

[1] = Study 2, Part 1: lenalidomide-quinidine pharmacokinetic interaction, open-label crossover in healthy subjects; assay type: in vivo, human; settings: for fe (cumulative urinary excretion as a percentage of administered dose): urine
Protocol: Study 2, Part 1 was designed as an open-label, fixed-sequence, 2-period, crossover trial. In Period 1, subjects received a single oral dose of 25 mg lenalidomide. […] Study periods were separated by a washout of 7–10 days. In both periods, serial blood samples were collected, and urine samples were pooled over specified intervals for up to 48-h post-lenalidomide dosing to determine plasma and urine lenalidomide concentrations.

[2] = Study 2, Part 2: lenalidomide-temsirolimus pharmacokinetic interaction, open-label crossover in healthy subjects; assay type: in vivo, human; settings: for AUC(0-inf) / AUC(0-t) / Cmax / half-life / CL renal / fe (cumulative urinary excretion as a percentage of administered dose): geometric mean (geometric CV %); for Tmax: median (range); for CL renal: plasma and urine, read-out: CLR (renal clearance); for fe (cumulative urinary excretion as a percentage of administered dose): urine
Protocol: Study 2, Part 2 was designed as an open-label, fixed-sequence, 3-period, crossover trial. In Period 1, subjects received a single oral dose of 25 mg lenalidomide; in Period 2, subjects received a single dose of temsirolimus 25 mg via a 30-min intravenous (IV) infusion; and in Period 3, subjects received both a single 25 mg oral dose of lenalidomide and a single 25 mg IV dose of temsirolimus. Pre-treatment with IV diphenhydramine (25 mg) was administered 30 min prior to start of each temsirolimus infusion. There was a 7–10 day washout between Study Periods 1 and 2, and a minimum 14-day washout between Study Periods 2 and 3.

[3] = Safety evaluation in the phase I studies (AEs, laboratory values, ECG, vital signs); assay type: in vivo, human; settings: lenalidomide given with digoxin, quinidine or temsirolimus vs lenalidomide alone or with placebo
Protocol: Safety was evaluated throughout each study by monitoring AEs, physical examinations, vital signs, clinical laboratory values, and 12-lead electrocardiogram results and was summarized using descriptive statistics.

human P-gp = system: human P-gp; design: method as in ref 14, 15 = [14]; 14. Kumar GN, Surapaneni S, Lau H, Laskin O, Fox L (2008) Interaction of lenalidomide with human drug transporters in vitro [abstract 381]. ISSX Online Abstracts Supplement 3 (No. 3). Presented at the || [15]; PMID 21825263; doi:10.1200/JCO.2010.32.4962; 15. Hofmeister CC Yang X Pichiorri F Chen P Rozewski DM Johnson AJ Lee S Liu Z Garr CL Hade EM Ji J Schaaf LJ Benson DM Jr Kraut EH Hicks WJ Chan KK Chen CS Farag SS Grever MR Byrd JC Phelps MA Phase; settings: monolayers of LLC-PK1 and MDCKII cell lines expressing human P-gp; cited from earlier work
P-gp = settings: up to a concentration of 300 μM, P-gp expressing LLC-PK1 cell line; cited from earlier work
[4] = cited from earlier work
[5] = design: method as in PMID 22213235; settings: cited from earlier work
[6] = design: method as in ref 15 = [15]; PMID 21825263; doi:10.1200/JCO.2010.32.4962; 15. Hofmeister CC Yang X Pichiorri F Chen P Rozewski DM Johnson AJ Lee S Liu Z Garr CL Hade EM Ji J Schaaf LJ Benson DM Jr Kraut EH Hicks WJ Chan KK Chen CS Farag SS Grever MR Byrd JC Phelps MA Phase; settings: MM patients, cited from earlier work
CYP3A4 = settings: cited from earlier work
human P-gp transporters = settings: read-out: Ki for inhibiting human P-gp transporters in vitro; cited from earlier work
[7] = human, oral, lenalidomide 25 mg alone (n = 14), plasma, geometric mean (geometric CV %)
[8] = human, oral, lenalidomide 25 mg alone (n = 17), plasma
[9] = human, lenalidomide 25 mg + temsirolimus 25 mg IV (n = 11), plasma
[10] = human, temsirolimus 25 mg IV + lenalidomide 25 mg (n = 11), whole blood
[11] = human, temsirolimus 25 mg IV alone (n = 14), whole blood

Median time of observed Cmax of lenalidomide (clinical; human, in vivo): 0.5 to 1 h | AUC(0-inf) (clinical; human, in vivo, 10 mg): 475 ng·h/mL | AUC(0-t) (clinical; human, in vivo, 10 mg): 396 ng·h/mL | Cmax (clinical; human, in vivo, 10 mg): 119 ng/mL | Tmax (clinical; human, in vivo, 10 mg): 1 h | half-life (clinical; human, in vivo, 10 mg): 2.4 h | AUC(0-inf) [1, 7]: 1360 ng·h/mL | AUC(0-t) [1, 7]: 1290 ng·h/mL | half-life [1, 7]: 2.81 h | Cmax ([1]; human, oral, lenalidomide 25 mg alone (n = 14), plasma, geometric mean (geometric CV %), read-out: Cmax): 367 ng/mL | Tmax ([1]; human, oral, lenalidomide 25 mg alone (n = 14), plasma, median (range)): 1 h | CL renal ([1]; human, plasma and urine, oral, lenalidomide 25 mg alone (n = 14), geometric mean (geometric CV %), read-out: CLR (renal clearance)): 227 mL/min | fe (cumulative urinary excretion as a percentage of administered dose) ([1]; lenalidomide 25 mg + quinidine (n = 14), geometric mean (geometric CV %)): 70.2 (6.6) % dose | fe (cumulative urinary excretion as a percentage of administered dose) ([1]; lenalidomide 25 mg alone (n = 14), geometric mean (geometric CV %)): 74.2 (11.4) % dose | Time by which urinary excretion of unchanged lenalidomide was nearly complete ([1]; post-dose, under all treatment conditions (alone, + quinidine, + temsirolimus)): ≤ 12 h | AUC(0-inf) [2, 8]: 1350 ng·h/mL | AUC(0-t) [2, 8]: 1280 ng·h/mL | Cmax [2, 8]: 364 ng/mL | half-life [2, 8]: 2.81 h | Tmax [2, 8]: 0.5 h | CL renal ([2]; human, oral, lenalidomide 25 mg alone (n = 17)): 251 mL/min | CL renal ([2]; human, lenalidomide 25 mg + temsirolimus 25 mg IV (n = 11)): 229 mL/min | AUC(0-inf) [2, 9]: 1440 ng·h/mL | AUC(0-t) [2, 9]: 1370 ng·h/mL | Cmax [2, 9]: 361 ng/mL | half-life [2, 9]: 2.69 h | Tmax [2, 9]: 1 h | fe (cumulative urinary excretion as a percentage of administered dose) ([2]; lenalidomide 25 mg + temsirolimus 25 mg IV (n = 11)): 79.6 (8.0) % dose | fe (cumulative urinary excretion as a percentage of administered dose) ([2]; lenalidomide 25 mg alone (n = 17)): 81.0 (10.0) % dose
Structure (SMILES): Nc1cccc2c1CN(C1CCC(=O)NC1=O)C2=O (stereo not shown) [Lenalidomide]
90 % CIs for the ratio of geometric means, lenalidomide alone vs plus an interacting drug, for Cmax and AUC in plasma (clinical; human, in vivo): completely contained within the limits of 80 and 125% | 90 % CIs for the ratio of geometric means, lenalidomide alone vs plus an interacting drug, for renal clearance ([1]; interacting drug quinidine or temsirolimus (Study 2)): completely contained within the limits of 80 and 125% | Number of subjects reporting AEs, or number of AEs reported [3]: no apparent increase | Efflux ratio (human P-gp): approximately 3 | Inhibition of P-gp-dependent transport of digoxin (P-gp): did not inhibit | Absorption after oral administration [4]: > 90% | Administered dose eliminated by renal excretion of the unchanged drug [4]: Approximately 80% | Bioavailability ([4]; known high bioavailability): > 90% | Lenalidomide AUC with itraconazole relative to other MM patients receiving lenalidomide alone ([5]; MM patient, lenalidomide 10 mg/day + itraconazole 100 mg/day vs lenalidomide 25 mg/day alone): 12 fold | Elimination half-life (t 1/2) ([5]; with itraconazole): 5.5 h | Elimination half-life (t 1/2) ([5]; without itraconazole): 6.7 h | C max and AUC of lenalidomide with increasing doses of temsirolimus ([6]; lenalidomide 25 mg/day, temsirolimus 15–20 mg/day): increase | CYP3A4 substrate, inhibitor or inducer status (CYP3A4): not a substrate, inhibitor, or inducer of CYP3A4

AUC(0-inf) [2, 10]: 2710 ng·h/mL | AUC(0-t) [2, 10]: 2570 ng·h/mL | Cmax [2, 10]: 649 ng/mL | half-life [2, 10]: 15.2 h | Tmax [2, 10]: 0.47 h | AUC(0-inf) [2, 11]: 2800 ng·h/mL | AUC(0-t) [2, 11]: 2670 ng·h/mL | Cmax [2, 11]: 586 ng/mL | half-life [2, 11]: 15.3 h | Tmax [2, 11]: 0.47 h
Structure (SMILES): CO[C@H]1C[C@@H]2CC[C@@H](C)[C@@](O)(O2)C(=O)C(=O)N2CCCC[C@H]2C(=O)O[C@H]([C@H](C)C[C@@H]2CC[C@@H](OC(=O)C(C)(CO)CO)[C@H](OC)C2)CC(=O)[C@H](C)/C=C(\C)[C@@H](O)[C@@H](OC)C(=O)[C@H](C)C[C@H](C)/C=C/C=C/C=C/1C [Temsirolimus]
90 % CIs for the ratio of geometric means, temsirolimus alone vs temsirolimus plus lenalidomide, for C max and AUCt ([2]; human, in vivo): completely contained within the limits l of 80 and 125% | C max and AUC of temsirolimus with increasing doses of lenalidomide ([6]; temsirolimus 15 mg/day, lenalidomide 15–25 mg/day): increase

T max (clinical; digoxin 0.5 mg + lenalidomide 10 mg/day (n = 17), plasma): 1.0 (1–3) h | T max (clinical; digoxin 0.5 mg alone (with placebo) (n = 17), plasma): 1.0 (1–3) h | AUC(0-inf) (clinical; human, plasma, oral, 0.5 mg): 26.3 ng·h/mL | AUC(0-t) (clinical; human, plasma, oral, 0.5 mg): 19.1 ng·h/mL | Cmax (clinical; human, plasma, oral, 0.5 mg): 1.69 ng/mL | half-life (clinical; human, plasma, oral, 0.5 mg): 32.3 h
Structure (SMILES): C[C@H]1O[C@@H](O[C@H]2[C@@H](O)C[C@H](O[C@H]3[C@@H](O)C[C@H](O[C@H]4CC[C@@]5(C)[C@H](CC[C@@H]6[C@@H]5C[C@@H](O)[C@]5(C)[C@@H](C7=CC(=O)OC7)CC[C@]65O)C4)O[C@@H]3C)O[C@@H]2C)C[C@H](O)[C@@H]1O [Digoxin]

Estimated mean C max for unbound quinidine ([1]; assuming 15 % of unbound drug): approximately 1 μM | Cmax ([1]; human, oral, 600 mg twice daily, plasma, Day 4, CV % 24.3): 2350 ng/mL | Mean quinidine trough concentration ([1]; plasma, Days 4–5, quinidine sulfate 600 mg twice daily): 1,705 ng/mL
Structure (SMILES): C=C[C@H]1C[N@@]2CC[C@H]1C[C@@H]2[C@@H](O)c1ccnc2ccc(OC)cc12 [Quinidine]
Ki (human P-gp transporters): 900 nM
